Experimental data: patent US6596500B1, “Binding of retinoids to M6P/IGF-II receptor” (The General Hospital Corporation, priority 1998, dated 2003)

Legend:
[1] = system: neonatal rat cardiac myocytes; assay: Cellular acid phosphatase activity in cultured cardiac myocytes; assay type: cell-based; details: RA 2 μM; various times
Protocol: FIG. 6. is a graph summarizing data on the effect of RA on cellular acid phosphatase activity. Cultured neonatal rat cardiac myocytes were treated with 2 μM RA at 37° C. for various time, washed and harvested. Cellular proteins were then solubilized by sonication and acid phosphatase activity was assayed using a Diagnostics Acid Phosphatase kit (Sigma). Dotted line represents control cells. Solid line represents RA-treated cells. Bars represent standard error or the mean (n=4).
The primary functions of the Man-6-P/IGF-II receptor are to mediate endocytosis of extracellular M6P-containing proteins (e.g. lysosomal enzymes) and IGF-II and to sort newly synthesized lysosomal enzymes. Therefore, an important question raised by the direct interaction of RA with M6P/IGF2R is whether RA influences these functions of the receptor. To answer this question, we examined the effect of RA on endocytosis of exogenous β-glucuronidase and ^125I-IGF-II and intracellular activity of acid phosphatase in cultured neonatal rat cardiac myocytes, which were known to express high levels of the M6P/IGF-II receptor (Nissley et al., 1993, Mol. Reprod. Dev. 35:408-413). […] This indicated an increased sorting of lysosomal enzymes) (FIGS. 4-6). […] These effects of RA were not altered in the presence of a protein synthesis inhibitor (0.5 mM cycloheximide) and were not observed in the receptor-negative P388D1 cells. […]

[2] = system: P388D1 cells; assay: RA effects on endocytosis, IGF-II internalization and acid phosphatase in receptor-negative cells; assay type: cell-based, mouse
Description: The primary functions of the Man-6-P/IGF-II receptor are to mediate endocytosis of extracellular M6P-containing proteins (e.g. lysosomal enzymes) and IGF-II and to sort newly synthesized lysosomal enzymes. Therefore, an important question raised by the direct interaction of RA with M6P/IGF2R is whether RA influences these functions of the receptor. To answer this question, we examined the effect of RA on endocytosis of exogenous β-glucuronidase and ^125I-IGF-II and intracellular activity of acid phosphatase in cultured neonatal rat cardiac myocytes, which were known to express high levels of the M6P/IGF-II receptor (Nissley et al., 1993, Mol. Reprod. Dev. 35:408-413). […] This indicated an increased sorting of lysosomal enzymes) (FIGS. 4-6). […] These effects of RA were not altered in the presence of a protein synthesis inhibitor (0.5 mM cycloheximide) and were not observed in the receptor-negative P388D1 cells. This indicated a direct interaction of RA with the M6P/IGF2R protein.

[3] = molecular target: M6P/IGF2R (Rattus norvegicus, UniProt G3V824); assay: β-glucuronidase binding to saponin-permeabilized cardiac myocytes; assay type: cell-based; parameters: endogenous in cells; host or cells: primary neonatal rat cardiac fibroblasts; details: RA 1 μM; saponin-permeabilized neonatal rat cardiac myocytes
M6P/IGF2R, sequence (G3V824 36-2481): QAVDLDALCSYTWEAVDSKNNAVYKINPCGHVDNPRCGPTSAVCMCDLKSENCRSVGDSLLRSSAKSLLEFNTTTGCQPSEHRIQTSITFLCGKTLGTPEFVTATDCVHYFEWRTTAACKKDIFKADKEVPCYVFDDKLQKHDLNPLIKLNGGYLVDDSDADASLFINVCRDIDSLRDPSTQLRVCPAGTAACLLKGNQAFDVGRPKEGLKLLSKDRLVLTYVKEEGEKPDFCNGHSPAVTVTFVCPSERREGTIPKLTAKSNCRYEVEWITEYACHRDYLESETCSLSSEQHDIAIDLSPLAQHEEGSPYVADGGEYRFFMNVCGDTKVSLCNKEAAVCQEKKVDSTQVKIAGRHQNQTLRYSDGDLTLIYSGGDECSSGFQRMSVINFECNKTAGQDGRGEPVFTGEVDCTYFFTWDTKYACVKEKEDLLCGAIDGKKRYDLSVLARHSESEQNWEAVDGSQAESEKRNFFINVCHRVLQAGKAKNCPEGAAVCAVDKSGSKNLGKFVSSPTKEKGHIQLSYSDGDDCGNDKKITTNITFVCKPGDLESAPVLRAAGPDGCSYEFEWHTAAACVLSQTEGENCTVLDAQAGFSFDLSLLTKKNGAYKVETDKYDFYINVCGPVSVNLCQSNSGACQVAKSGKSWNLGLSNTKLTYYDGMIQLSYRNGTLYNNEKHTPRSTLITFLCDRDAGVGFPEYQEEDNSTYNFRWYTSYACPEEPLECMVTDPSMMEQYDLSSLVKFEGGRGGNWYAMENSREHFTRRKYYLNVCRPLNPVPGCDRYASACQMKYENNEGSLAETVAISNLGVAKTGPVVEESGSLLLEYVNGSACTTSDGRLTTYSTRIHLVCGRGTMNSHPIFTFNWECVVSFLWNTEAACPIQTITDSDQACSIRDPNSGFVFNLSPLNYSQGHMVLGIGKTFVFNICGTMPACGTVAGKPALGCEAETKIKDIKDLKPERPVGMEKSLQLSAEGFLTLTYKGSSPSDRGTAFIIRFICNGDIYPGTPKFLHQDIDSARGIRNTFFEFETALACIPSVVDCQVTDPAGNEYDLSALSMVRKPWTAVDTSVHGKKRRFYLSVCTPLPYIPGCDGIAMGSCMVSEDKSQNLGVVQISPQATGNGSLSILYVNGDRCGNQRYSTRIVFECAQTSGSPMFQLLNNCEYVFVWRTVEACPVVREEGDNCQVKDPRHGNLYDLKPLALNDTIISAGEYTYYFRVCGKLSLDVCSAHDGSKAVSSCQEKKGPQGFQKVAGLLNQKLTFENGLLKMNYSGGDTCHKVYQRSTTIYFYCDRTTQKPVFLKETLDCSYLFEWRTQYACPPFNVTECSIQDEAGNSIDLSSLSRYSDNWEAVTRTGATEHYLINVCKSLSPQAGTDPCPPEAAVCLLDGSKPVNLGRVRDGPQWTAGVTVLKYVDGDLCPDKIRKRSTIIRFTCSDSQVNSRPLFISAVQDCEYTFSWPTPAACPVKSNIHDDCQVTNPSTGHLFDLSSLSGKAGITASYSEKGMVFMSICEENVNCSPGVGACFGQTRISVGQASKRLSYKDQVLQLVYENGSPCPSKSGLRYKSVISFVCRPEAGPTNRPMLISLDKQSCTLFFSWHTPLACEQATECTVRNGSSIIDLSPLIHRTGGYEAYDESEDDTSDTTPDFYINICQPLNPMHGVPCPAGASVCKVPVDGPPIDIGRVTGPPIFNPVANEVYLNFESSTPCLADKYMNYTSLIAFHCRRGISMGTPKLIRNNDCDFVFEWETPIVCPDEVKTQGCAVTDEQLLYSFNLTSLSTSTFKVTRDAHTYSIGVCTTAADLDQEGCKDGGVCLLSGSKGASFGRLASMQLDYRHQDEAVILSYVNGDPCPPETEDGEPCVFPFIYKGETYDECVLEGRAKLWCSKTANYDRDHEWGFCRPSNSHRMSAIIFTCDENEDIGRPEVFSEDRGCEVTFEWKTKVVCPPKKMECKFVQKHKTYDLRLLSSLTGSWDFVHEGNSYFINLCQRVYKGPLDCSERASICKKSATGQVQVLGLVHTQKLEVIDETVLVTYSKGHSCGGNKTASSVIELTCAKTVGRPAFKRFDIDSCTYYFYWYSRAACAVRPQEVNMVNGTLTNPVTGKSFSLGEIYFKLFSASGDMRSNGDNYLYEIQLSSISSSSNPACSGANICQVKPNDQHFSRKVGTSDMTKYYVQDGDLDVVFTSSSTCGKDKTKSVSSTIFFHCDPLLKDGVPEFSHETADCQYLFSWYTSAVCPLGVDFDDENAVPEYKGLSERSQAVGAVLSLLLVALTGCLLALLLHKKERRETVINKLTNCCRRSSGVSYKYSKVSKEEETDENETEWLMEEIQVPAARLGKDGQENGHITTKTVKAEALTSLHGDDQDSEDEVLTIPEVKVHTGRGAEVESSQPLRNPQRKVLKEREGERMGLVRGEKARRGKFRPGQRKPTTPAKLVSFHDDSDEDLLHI
Protocol: FIG. 3 is a histogram summarizing data on the effect of RA (1 μM) on β-glucuronidase binding to permeabilized neonatal rat cardiac myocytes (n=3).
To determine how these ligands interact in binding to the same receptor, we examined the effects of M6P and IGF-II on the [^3H]RA-affinity photolabeling of the M6P/IGF-II receptor. […] The [^3H]RA labeling of M6P/IGF-II receptor was 2-fold greater in the presence of 5 mM M6P than in the absence of M6P, as measured by NIH Image, n=3. Similar results were obtained by measurement of the binding of [^3H]RA to the partially purified receptors (FIG. 2). The increased binding of RA to the receptor in the presence of M6P appeared to be the result of increased binding affinity. […]
β-glucuronidase Binding and Endocytosis For binding assays, cells were permeabilized with saponin, incubated with β-glucuronidase (20,000 units/ml) with or without 1 μM RA for 3 h on ice, washed, solubilized and assayed for β-glucuronidase essentially as described by Miniti et al., 1992, J. Biol. Chem. 267:9000-9004. Specific enzyme binding was calculated by subtracting nonspecific binding (in the presence of 10 mM M6P) from total binding.

[4] = system: P388D1 cells; assay: Cathepsin B distribution in P388D1 cells lacking or overexpressing M6P/IGF2R; assay type: cell-based, mouse
Description: Intracellular Trafficking Materials Retinoic acid was obtained from Sigma Chem. Co. (St. Louis, Mo.). The synthetic retinoids used (AGN193109, TTNPB) were produced by Allergan Inc. (Irvine, Calif.). Stably-transfected P388D1 cells re-expressing the M6P/IGF2R were provided by Dr. William S. Sly (St. Louis University). The rabbit polyclonal antibody against the rat M6P/IGF-II receptor was a gift from Dr. R.G. MacDonald (University of Nebraska). The rabbit polyclonal anti-rat cathepsin B antibody was purchased from Upstate Biotechnology (N.Y.). The FITC-conjugated goat anti-rabbit IgG was obtained from Jackson ImmunoResearch Laboratories (West Grove, Pa.). Neonatal rat cardiac fibroblasts were prepared from 1-day-old rats using the Neonatal Cardiomyocyte Isolation System (Worthington) and grown on glass coverslips in F-10 nutrient mixture with 10% horse serum and 5% fetal bovine serum (FBS). Cells were used in experiments after 3-5 days of culture. Mouse macrophage P3,88D1 cells were cultured in minimum essential medium-a (MEM-α) supplemented with 10% FBS.
Cells were then fixed with 4% paraformaldehyde in phosphate-buffered saline (PBS) for 30 min. The cells were washed in PBS, permeabilized with 0.1% Triton X-100 in PBS for 5 min, and then incubated with either polyclonal anti-rat M6P/IGF2R antibody or anti-rat cathepsin B antibody (diluted 1:200) at room temperature for 1 h. […]

[5] = system: P388D1 cells; assay: Morphology, growth and apoptosis of P388D1 cells overexpressing M6P/IGF2R; assay type: cell-based, mouse; details: for Cell morphology: 1 μM RA for 24 hours
Protocol: FIG. 10 is a graph showing the effect of RA treatment on growth rate of P388D1 cells overexpressing M6P/IGF2R protein and P388D1 controls. Open circles, vector control cells without RA treatment; closed circles, vector control cells with 1 μM RA treatment; open triangles, overexpressing cells without RA treatment; closed triangles overexpressing cells with 1 μM RA treatment.
We examined M6P/IGF2R-mediated effects of RA in mouse macrophage P388D1 cells, which are the best characterized cells that lack the M6P/IGF2R protein.

[6] = molecular target: T1, M6P/IGF-II receptor (Rattus norvegicus, UniProt G3V824); assay: Endocytosis of exogenous β-glucuronidase in cultured cardiac myocytes; assay type: cell-based
T1 construct: cultured neonatal rat cardiac myocytes, which were known to express high levels of the M6P/IGF-II receptor; endogenous in cells; host or cells: primary neonatal rat cardiac myocytes
T1 sequence (G3V824 36-2481): as above
Protocol: FIG. 4 is a histogram summarizing data on the effect of RA on the endocytosis of exogenous β-glucuronidase. Myocytes were incubated for 2 h at 37°0 C. with 1 ml of MEM containing 10,000 units of human β-glucuronidase, and with or without 5 mM mannose 6-phosphate, in the presence or absence of 2 μM RA. Following the incubation, the internalized human β-glucuronidase was determined as described in the Methods.
(§1) The primary functions of the Man-6-P/IGF-II receptor are to mediate endocytosis of extracellular M6P-containing proteins (e.g. lysosomal enzymes) and IGF-II and to sort newly synthesized lysosomal enzymes. Therefore, an important question raised by the direct interaction of RA with M6P/IGF2R is whether RA influences these functions of the receptor. To answer this question, we examined the effect of RA on endocytosis of exogenous β-glucuronidase and ^125I-IGF-II and intracellular activity of acid phosphatase in cultured neonatal rat cardiac myocytes, which were known to express high levels of the M6P/IGF-II receptor (Nissley et al., 1993, Mol. Reprod. Dev. 35:408-413). […] This indicated an increased sorting of lysosomal enzymes) (FIGS. 4-6). […]
Endocytosis of extracellular β-glucuronidase was determined as described by Kyle et al., 1988, J. Biol. Chem. 263:16230-16235. […]

[7] = molecular target: T1, M6P/IGF-II receptor; assay: Internalization of 125I-IGF-II in cultured cardiac myocytes; assay type: cell-based; details: RA 2 μM; 2 h
Protocol: FIG. 5 is a histogram summarizing data on the effect of RA on the internalization of ^125I-IGF-II. Assay was performed by incubating cells at […] for 2 h in media (150 mM NaCl, 5 mM KCl, 1.2 mM MgSO4, 8 mM glucose, 100 mM Hepes, pH 7.6) or F-10 culture medium containing ^125I-IGF-II (0.5 ng/ml) with or without excess unlabeled IGF-II (2 μg/ml), in the presence or absence of 2 μM RA. Following the incubation, the cells were washed three times with ice-cold PBS, and cell-associated radioactivity was determined by a gamma counter.
as §1

[8] = system: neonatal rat cardiac myocytes; assay: Growth, morphology and apoptosis of cardiac myocytes; assay type: cell-based
Protocol: Cultured neonatal rat cardiac myocytes were known to express high levels of the M6P/IGF2R protein. The effect of RA on the growth of normal, neonatal rat cardiac myocytes was examined.
Cell Isolation and Culture For the photoaffinity labeling experiments, cardiac myocytes were isolated from 1-day-old neonatal Sprague-Dawley rats, using the Neonatal Cardiomyocyte Isolation System (Worthington). The isolated cell were cultured on Petri dishes with culture medium (F-10 nutrient mixture/10% horse serum/5% fetal bovine serum/50 μg/ml streptomycin/50 units/ml penicillin G). Cells were used for experiments after 2-6 days of culture.

M6P-inhibitable binding of β-glucuronidase to cells, presence vs absence of RA [3]: 2-3 times
Effects of RA on endocytosis, IGF-II internalization and acid phosphatase with protein synthesis inhibitor ([6]; RA 2 μM plus 0.5 mM cycloheximide): not altered
M6P-inhibitable endocytosis of β-glucuronidase ([6]; RA 2 μM, 2 h at 37° C.): almost doubled
Increase of internalization of IGF-II [7]: 30-50%
Compound: CC1=C(/C=C/C(C)=C/C=C/C(C)=C/C(=O)O)C(C)(C)CCC1 [RA, all-trans-retinoic acid]
Cellular acid phosphatase activity [1]: induced a transient cellular accumulation of acid phosphatase
Effects of RA on endocytosis, IGF-II internalization and acid phosphatase in receptor-negative cells [2]: not observed
RA-induced cathepsin B translocation ([4]; M6P/IGF2R-deficient P388D1 cells): No significant effect
RA-induced cathepsin B translocation ([4]; stably-transfected P388D1 cells overexpressing M6P/IGF2R): remarkable cathepsin B translocation
Cell morphology ([5]; P388D1 cells overexpressing M6P/IGF2R): remarkable changes in cell morphology
Cell morphology ([5]; control P388D1 cells transformed with vector alone): no such changes
Cell growth (proliferation) ([5]; 1 μM RA, P388D1 cells overexpressing M6P/IGF2R): grew much more slowly
Apoptotic cells (fluorescence staining of fragmented DNA) ([5]; RA, overexpressing P388D1 cells vs controls): much higher number of apoptotic cells
Cell morphology and growth ([8]; 48 hours): marked alteration of cell morphology, and inhibition of growth
Apoptotic cells (Hoechst 33258 nuclear staining) ([8]; RA-treated cultures vs controls): many more apoptotic cells
